The values below come from ChEMBL document CHEMBL2150989, “Effect of phospholipid-based formulations of Boswellia serrata extract on the solubility, permeability, and absorption of the individual boswellic acid constituents present” (J Nat Prod, 2012).

Assay type in all cases: ADME, organism-based
Common to all, as to design: dose 240 mg/kg, route oral

One series relates to Plasma. Nature of the series: Plasma concentration in rat at 240 mg/kg, po administered using compound, Lipoid S100 and pluronic f127 ratio 1:1:1 formulation relative to non-formulated compound after 4 to 6 hrs. The note with it: in vivo.
Series [1] concerns Brain. Nature of the series: Drug level in rat brain at 240 mg/kg, po. The note with it: in vivo.
In series [2] the test system is Brain. In words: Drug level in rat brain at 240 mg/kg, po administered using compound, Lipoid S100 and pluronic f127 ratio 1:1:1 formulation. The note with it: in vivo.
Series [3] can be described thus: Ratio drug level in brain to plasma of rat at 240 mg/kg, po after 8 hrs. The note with it: brain and plasma, read-out: BPR.
Series [4] can be described thus: Ratio drug level in brain to plasma of rat at 240 mg/kg, po administered using compound, Lipoid S100 and pluronic f127 ratio 1:1:1 formulation after 8 hrs. The note with it: read-out: BPR.

Regarding `CC(=O)O[C@@H]1CC[C@@]2(C)[C@@H](CC[C@]3(C)[C@@H]2CC=C2[C@@H]4CC(C)(C)CC[C@]4(C)CC[C@]23C)[C@@]1(C)C(=O)O`, the “fold change (FC)” value with Plasma is 26. The Drug uptake in the series with Brain [1] was found to be 43 ng/g; in the series on Brain [2] it was 60.1 ng/g.
Taken in the same sequence, the figures for `CC(=O)O[C@@H]1CC[C@@]2(C)[C@@H](CC[C@]3(C)[C@@H]2CC=C2[C@@H]4[C@@H](C)[C@H](C)CC[C@]4(C)CC[C@]23C)[C@@]1(C)C(=O)O` were 26, 163.7 ng/g and 156.1 ng/g.
Consider `CC1(C)CC[C@]2(C)CC[C@]3(C)C(=CC[C@@H]4[C@@]5(C)CC[C@@H](O)[C@](C)(C(=O)O)[C@@H]5CC[C@]43C)[C@@H]2C1`, for which, in the series with Plasma, the “fold change (FC)” value is reported as 26. In addition, the results for the Kp at 8 h in series [3] and in series [4] were 0.18 and 4.4, respectively. The Drug uptake with Brain [1] was 485.1 ng/g; with Brain [2], 2443.9 ng/g.
